Experiments:
Assay type in all cases: cell-based
[1] = test system: Human Rhinovirus 16 (HRV16) in H1-HeLa cells; assay: H1-HeLa HRV-CTG 384-well Assay (Ex. Y), HRV16; details: Rhinovirus A, 96 h; H1-HeLa cells, HRV16 MOI 0.25, 4 days, Celltiter-Glo; read-out: EC50 H1-HeLa_HRV16_HRV-CTG 384-well Assay (per Ex. Y)
Excerpt: (§1) Example Y: H1-HeLa HRV-CTG 384-well Assay
(§2) H1-Hela cell line (ATCC, Manassas, VA, Cat #CRL-1958) was maintained in Dulbecco's […] (DMEM) (Corning, New York, NY, Cat #15-018CM) supplemented with 10% fetal bovine serum (FBS) (Hyclone, Logan, UT, Cat #SH30071-03), and 1× Penicillin-Streptomycin-L-Glutamine (Corning, New York, NY, Cat #30-009-CI). Cells were passaged 2 times per week to maintain sub-confluent densities and were used for experiments at passage 5-30. The Human Rhinovirus 1B (HRV1B) (ATCC, Manassas, VA, Cat #VR-1645) , Human Rhinovirus 14 (HRV14) (ATCC, Manassas, VA, Cat #VR-284), and Human Rhinovirus 16 (HRV16) (ATCC, Manassas, VA, Cat #BR-283) was obtained through ATCC. Viral infection was monitored by determining viability of H1-HeLa cells as described below.
(§3) Test molecules are prepared in 100% DMSO in 384-well polypropylene plates (Greiner, Monroe, NC, Cat #784201) with 8 compounds per plate in grouped replicates of 4 at 10 serially diluted concentrations (1:3). The serially diluted compounds were transferred to low dead volume Echo plates (Labcyte, Sunnyvale, CA, Cat #LP-0200).
(§4) The test compounds were spotted to 384-well assay plates (Greiner, Monroe, NC, Cat#781091) at 200 nL per well using an Echo acoustic dispenser (Labcyte, Sunnyvale, CA). H1-HeLa cells were harvested and suspended in DMEM (supplemented with 2% FBS and 1× Penicillin-Streptomycin-L-Glutamine) and seeded to the pre-spotted assay plates at 5,000 cells per well in 30 μL. HRV1B, HRV14, and HRV16 was diluted in DMEM (supplemented with 2% FBS and 1× Penicillin-Streptomycin-L-Glutamine) at 97.1 million Infectious Units (IU) per mL, 151 million IU per mL and 221 million IU per mL respectively. 10 μL of virus per well was added to the assay plates containing cells and compounds, for an MOI of 0.5, 1.0, and 0.25 respectively. The assay plates were incubated for 4 days at 37° C. and 5% CO2. At the end of incubation, Celltiter-Glo (Promega, Madison, WI, Cat #(Ga7573) was prepared. The assay plates and Celltiter-Glo reagent were equilibrated to room temperature for at least 15 minutes. 40 μL per well of Celltiter-Glo reagent was added and the plates were incubated at room temperature for 15 minutes before reading the luminescence signal on an EnVision multimode plate reader (Perkin Elmer, Waltham, MA). Rupintrivir was used as positive control and DMSO was used as negative control. Values were normalized to the positive and negative controls (as 0% and 100% replication, respectively) and data was fitted using non-linear regression analysis by Gilead's dose response tool. The EC50 value for each compound was defined as the concentration reducing viral replication by 50%.

[2] = test system: Human Rhinovirus 1B (HRV1B) in H1-HeLa cells; assay: H1-HeLa HRV-CTG 384-well Assay (Ex. Y), HRV1B; details: Rhinovirus A, 96 h; H1-HeLa cells, HRV1B MOI 0.5, 4 days, Celltiter-Glo; read-out: EC50 H1-HeLa_HRV1B_HRV-CTG 384-well Assay (per Ex. Y)
Excerpt: as §1, §2, §3, §4

[3] = test system: Respiratory syncytial virus recombinant with luciferase (RSV-Luc5) in HEp-2 cells; assay: HEp-2 RSV-Luc5 384-well Assay (EC50 RSVFLUC Hep2-384 v2, Ex. V); details: human respiratory syncytial virus, HEp-2, 72 h, read-out: EC50 RSV FLuc Hep-2 384 V2 (per Ex. V)
Excerpt: Example V: HEp-2 RSV-Luc5 384-well Assay (EC50 RSVFLUC Hep2-384 v2)
HEp-2 cell line was purchased from ATCC (Manassas, VA Cat #CCL-23) and maintained in Dulbecco's […] (DMEM) (Corning, New York, NY, Cat #15-018CM) supplemented with 10% fetal bovine serum (FBS) (Hyclone, Logan, UT, Cat #SH30071-03) and 1× Penicillin-Streptonycin-L-Glutamine (Corning, New York, NY, Cat #30-009-CI). Cells were passaged 2 times per week to maintain sub-confluent densities and were used for experiments at passage 5-20. Respiratory syncytial virus recombinant with luciferase (RSV-Luc5) (≥1 ×107 TCID50/ml) was purchased from Microbiologics (Saint Cloud, MN). Viral replication was determined in HEp-2 cells in the following manner.
as §3, with “Compounds” for “Test molecules”
The test compounds were spotted to 384-well assay plates (Greiner, Monroe, NC, Cat#781091) at 200 nL per well. HEp-2 cells were harvested and suspended in DMEM (supplemented with 10% FBS and 1× Penicillin-Streptonycin-L-Glutamine) and seeded to the pre-spotted assay plates at 4,000 cells per well in 30 μL. RSV-Luc5 viruses were diluted in DMEM (supplemented with 10% FBS and 1× Penicillin-Streptomycin-L-Glutamine) at 200,000 Infectious Units (IU) per mL and 10 μL per well was added to the assay plates containing cells and compounds, for an MOI=0.5. The assay plates were incubated for 3 days at 37° C. and 5% CO2. At the end of incubation, One-Glo reagent (Promega, Madison, WI, Cat #E6120) was prepared. The assay plates and One-Glo reagent were equilibrated to room temperature for at least 15 minutes. 40 μL per well of One-Glo reagent was added and the plates were incubated at room temp for 15 minutes before reading the luminescence signal on an EnVision multimode plate reader (Perkin Elmer, Waltham, MA). Remdesivir was used as positive control and DMSO was used as negative control. Values were normalized to the positive and negative controls (as 0% and 100% replication, respectively) and data was fitted using non-linear regression analysis by Gilead's dose response tool. The EC50 value for each compound was then determined as the concentration reducing the viral replication by 50%.

[4] = test system: Human Rhinovirus 14 (HRV14) in H1-HeLa cells; assay: H1-HeLa HRV-CTG 384-well Assay (Ex. Y), HRV14; details: Rhinovirus B, 96 h; H1-HeLa cells, HRV14 MOI 1.0, 4 days, Celltiter-Glo; read-out: EC50 H1-HeLa_HRV14_HRV-CTG 384-well Assay (per Ex Y)
Excerpt: as §1, §2, §3, §4

In the case of `CCC(CC)C(=O)Nc1ncnn2c([C@@H]3O[C@](C#N)(COC(=O)C(CC)CC)[C@@H](O)[C@H]3O)ccc12` [Compound 11, ((2R,3S,4R,5S)-2-cyano-5-(4-(2-ethylbutanamido)pyrrolo[2,1-f][1,2,4]triazin-7-yl)-3,4-dihydroxytetrahydrofuran-2-yl)methyl 2-ethylbutanoate], the EC50 [1] is reported as 50 µM, the EC50 [2] is reported as 50 µM and the EC50 [3] is reported as 41.5 µM. The EC50 [4] was 50 µM.

`CC(C)[C@H](N)C(=O)OC[C@@]1(C#N)O[C@@H](c2ccc3c(N)ncnn23)[C@H](O)[C@@H]1O` [Compound 12, ((2R,3S,4R,5S)-5-(4-aminopyrrolo[2,1-f][1,2,4]triazin-7-yl)-2-cyano-3,4-dihydroxytetrahydrofuran-2-yl)methyl L-valinate] gave an EC50 [1] of 8.82 µM, an EC50 [2] of 6.5 µM and an EC50 [3] of 19.2 µM. For the same compound, the EC50 [4] was 6 µM.

Compound `CC(C)(C)CC(=O)OC[C@@]1(C#N)O[C@@H](c2ccc3c(N)ncnn23)[C@H](O)[C@@H]1O` [Compound 13, ((2R,3S,4R,5S)-5-(4-aminopyrrolo[2,1-f][1,2,4]triazin-7-yl)-2-cyano-3,4-dihydroxytetrahydrofuran-2-yl)methyl 3,3-dimethylbutanoate] has an EC50 [1] of 50 µM, an EC50 [2] of 50 µM and an EC50 [3] of 50 µM. For the same compound, the EC50 [4] was 50 µM.

`Cc1ccc(C(=O)OC[C@@]2(C#N)O[C@@H](c3ccc4c(N)ncnn34)[C@H](O)[C@@H]2O)cc1` [Compound 14, ((2R,3S,4R,5S)-5-(4-aminopyrrolo[2,1-f][1,2,4]triazin-7-yl)-2-cyano-3,4-dihydroxytetrahydrofuran-2-yl)methyl 4-methylbenzoate] was tested, and the EC50 [1] was 23.8 µM, the EC50 [2] was 9.8 µM and the EC50 [3] was 22 µM. It also gave an EC50 [4] of 8.17 µM.

With `CC1(C(=O)OC[C@@]2(C#N)O[C@@H](c3ccc4c(N)ncnn34)[C@H](O)[C@@H]2O)CC1` [Compound 15, ((2R,3S,4R,5S)-5-(4-aminopyrrolo[2,1-f][1,2,4]triazin-7-yl)-2-cyano-3,4-dihydroxytetrahydrofuran-2-yl)methyl 1-methylcyclopropane-1-carboxylate] the EC50 [1] was 31.1 µM, the EC50 [2] was 22.8 µM and the EC50 [3] was 31.6 µM. It also gave an EC50 [4] of 50 µM.

In the case of `N#C[C@]1(COC(=O)CC2CCC2)O[C@@H](c2ccc3c(N)ncnn23)[C@H](O)[C@@H]1O` [Compound 16, ((2R,3S,4R,5S)-5-(4-aminopyrrolo[2,1-f][1,2,4]triazin-7-yl)-2-cyano-3,4-dihydroxytetrahydrofuran-2-yl)methyl 2-cyclobutylacetate], the EC50 [1] is reported as 7.15 µM, the EC50 [2] is reported as 3.14 µM and the EC50 [3] is reported as 18.3 µM. It also gave an EC50 [4] of 6.99 µM.

Compound `CC1(C)CC(C(=O)OC[C@@]2(C#N)O[C@@H](c3ccc4c(N)ncnn34)[C@H](O)[C@@H]2O)C1` [Compound 17, ((2R,3S,4R,5S)-5-(4-aminopyrrolo[2,1-f][1,2,4]triazin-7-yl)-2-cyano-3,4-dihydroxytetrahydrofuran-2-yl)methyl 3,3-dimethylcyclobutane-1-carboxylate] has an EC50 [1] of 7.57 µM, an EC50 [2] of 3.2 µM and an EC50 [3] of 19.7 µM. It also gave an EC50 [4] of 7.83 µM.

Work on `N#C[C@]1(COC(=O)C2CCCC2)O[C@@H](c2ccc3c(N)ncnn23)[C@H](O)[C@@H]1O` [Compound 18, ((2R,3S,4R,5S)-5-(4-aminopyrrolo[2,1-f][1,2,4]triazin-7-yl)-2-cyano-3,4-dihydroxytetrahydrofuran-2-yl)methyl cyclopentanecarboxylate] yielded an EC50 [1] of 8.01 µM, an EC50 [2] of 3.03 µM and an EC50 [3] of 23.3 µM. The EC50 [4] was 6.93 µM.

Work on `N#C[C@]1(COC(=O)C2CCCCC2)O[C@@H](c2ccc3c(N)ncnn23)[C@H](O)[C@@H]1O` [Compound 19, ((2R,3S,4R,5S)-5-(4-aminopyrrolo[2,1-f][1,2,4]triazin-7-yl)-2-cyano-3,4-dihydroxytetrahydrofuran-2-yl)methyl cyclohexanecarboxylate] yielded an EC50 [1] of 9.23 µM, an EC50 [2] of 4.11 µM and an EC50 [3] of 18 µM. It also gave an EC50 [4] of 6.84 µM.

`CC(C)C(=O)OC[C@@]1(C#N)O[C@@H](c2ccc3c(N)ncnn23)[C@H](OC(=O)C(C)C)[C@@H]1OC(=O)C(C)C` [Compound 20, (2R,3S,4S,5S)-5-(4-aminopyrrolo[2,1-f][1,2,4]triazin-7-yl)-2-cyano-2-((isobutyryloxy)methyl)tetrahydrofuran-3,4-diyl bis(2-methylpropanoate)] gave an EC50 [1] of 50 µM, an EC50 [2] of 9.63 µM and an EC50 [3] of 29.9 µM. It also gave an EC50 [4] of 12.8 µM.

Compound `CC(C)C(=O)O[C@H]1[C@H](c2ccc3c(N)ncnn23)O[C@](C#N)(COC(=O)c2ccccc2)[C@H]1O` [Compound 22, ((2R,3S,4R,5S)-5-(4-aminopyrrolo[2,1-f][1,2,4]triazin-7-yl)-2-cyano-3-hydroxy-4-(isobutyryloxy)tetrahydrofuran-2-yl)methyl benzoate] has an EC50 [1] of 33.1 µM, an EC50 [2] of 12.8 µM and an EC50 [3] of 32.1 µM. The EC50 [4] was 15.9 µM.

For `CC(=O)OC[C@@]1(C#N)O[C@@H](c2ccc3c(NC(=O)C(C)C)ncnn23)[C@H](O)[C@@H]1O` [Compound 23, ((2R,3S,4R,5S)-2-cyano-3,4-dihydroxy-5-(4-isobutyramidopyrrolo[2,1-f][1,2,4]triazin-7-yl)tetrahydrofuran-2-yl)methyl acetate], the EC50 [1] was 50 µM, the EC50 [2] was 33.5 µM and the EC50 [3] was 33.1 µM. The EC50 [4] was 49.8 µM.

With `CC1(C(=O)OC[C@@]2(C#N)O[C@@H](c3ccc4c(N)ncnn34)[C@H](O)[C@@H]2O)CCC1` [Compound 24, ((2R,3S,4R,5S)-5-(4-aminopyrrolo[2,1-f][1,2,4]triazin-7-yl)-2-cyano-3,4-dihydroxytetrahydrofuran-2-yl)methyl 1-methylcyclobutane-1-carboxylate] the EC50 [1] was 8.9 µM, the EC50 [2] was 3.43 µM and the EC50 [3] was 12 µM. It also gave an EC50 [4] of 6.34 µM.
